The results in this text go back to US8741843B2, “Compositions and methods for inducing angiogenesis” (priority 2006, dated 2014).

Entries after “also recorded” stand apart in the source; their conditions may differ.

Assay [1] has as its target T1, GRP78 on endothelial cells (Homo sapiens, UniProt P11021).
T1 construct: endogenous in cells; host or cells: HUVEC / endothelial cells from umbilical cords, under normoxia or hypoxia
Briefly: FACS competition of peptides with GRP78 polyclonal antibody on endothelial cells under hypoxia. Format: binding. Particulars: hypoxic conditions; for inhibition of anti GRP78 binding to endothelial cells: ten micrograms of peptide. As for the experimental part: Endothelial cells were cultured for 24 hours under hypoxic conditions in endothelial cell growth medium. Cells were removed by trypsin and incubated for 1 hour on ice with increasing concentrations of AdoPep1, Motif A and Motif C peptides. GRP78 polyclonal antibody (2 μg/100,000) was added to the cells for 2 hours on ice. Anti-goat FITC (Jackson ImmunoResearch) was added for 30 minutes on ice. IgG1-FITC was used as the isotype control. The samples were analyzed with a FACScan (Beckton Dickinson). […] FIG. 28d depicts the average percent binding of GRP78 to endothelial cells as a function of peptide amount as determined by 2 independent experiments.

Assay [2] relates to endothelial cells (HUVEC). As to the kind of experiment: Proliferation of endothelial cells under hypoxia ([H3]Thymidine incorporation). Format: cell-based, human. The note with it: 24 hours starvation, 10 ng/ml. As for the experimental part:
FIG. 5 is a graph depicting cell proliferation as a function of ADOPeps' concentration. Proliferation of endothelial cells (EC) under hypoxia conditions was measured by [H^3]Thymidine incorporation. Endothelial cells (12,000/well) in minimal growth medium were incubated for 24 hours in the presence of 1, 10 and 100 ng/ml of ADOPep1 (SEQ ID NO:2; red diamonds), 2 (SEQ ID NO:3; blue squares) and 3 (SEQ ID NO:4; green triangles) peptides.
HUVEC from passage 3 were used for proliferation experiments. Endothelial cells (15,000 cells/well) were seeded on 24-wells in the presence of endothelial cell growth medium (Promocell, Heidelberg, Germany) with supplements and incubated for 24 hours. After then, cells were exposed to 24 hours starvation in a medium free of supplements. ADOPeps were added at concentrations of 1, 10 and 100 ng/ml for 24 hours under hypoxic conditions. 2 μCi/well of Thymidine (SIGMA, Rehovot Israel) were added or over night incubation followed by 3 washes with PBS before harvesting at 37° C. with 300 μl/well of 0.5 M NaOH. Cell lysates were transferred to scintillation vials with 2 ml scintillation liquid Ultima Gold (Packard Bioscience, Meriden, USA) and counted in a β counter. Results were obtained as counts per minute (cpm).
For orientation: Dividing cells build labelled thymidine or BrdU into new DNA.

In a further assay the test system is endothelial cells. As to the kind of experiment: Hypoxia-induced apoptosis of endothelial cells (Annexin V FITC/PI FACS). Format: cell-based, human. The note with it: for effect on hypoxia-induced apoptosis of endothelial cells / percent apoptosis (PI/Annexin V): 24 hours hypoxia; for effect on hypoxia-induced apoptosis of endothelial cells: peptides 10 ng/ml; for percent apoptosis (PI/Annexin V): FIGS. 24a-d, hypoxia alone 79.3%. Here is the method: FIG. 17 is a histogram depicting the effect of ADOPep1 on hypoxia-induced apoptosis of endothelial cells. Endothelial cells were exposed for 24 hours hypoxia in the presence of endothelial cell growth medium supplemented with 5% fetal calf serum (FCS), followed by incubation under hypoxia conditions with ADOPep1 (10 ng/ml) or anti-GRP78 antibody (100 ng/ml). Cells (100,000/tube) were incubated with Annexin-V FITC/PI for endothelial cell apoptosis determination. […] Similarly, anti-GRP78 antibody induced a reduction in apoptosis up to 32%.
FIGS. 24a-d are FACS analyses depicting hypoxia induced apoptosis. Endothelial cells were incubated for 24 hours under hypoxia conditions in the absence (FIG. 24a) or presence of 10 ng/ml of ADOPepe1 (FIG. 24b), peptide of Motif A (FIG. 24c) or peptide of motif C (FIG. 24d) and the level of apoptosis was determined using FACS analysis and the PI (shown on the Y axis)/Annexin V (shown on the X axis) markers.
FIG. 25 is a bar graph depicting the inhibition of hypoxia induced apoptosis by ADOPep 1, Motif A and Motif B. Endothelial cells were incubated for 24 hours under hypoxia conditions in the absence or presence of 10 ng/ml of ADOPepe1, Motif A, Motif B or motif C and the level of apoptosis was determined using FACS analysis and quantified as the percent of Annexin V and PI positive cells. The results represent average±standard deviation of 4 independent experiments.
FIGS. 33a-f are representative FACS analyses depicting a specific inhibition of hypoxia-induced apoptosis of endothelial cells by ADOPep1. Endothelial cells in Petri dishes were incubated for 24 hours with 5% FCS in supplement-free endothelial cell growth medium under normoxia (FIGS. 33a and d), exposed to 24 hours hypoxia (Figures c and f) or incubated under normoxia with 100 micromolar per 100,000 cells CoCl2 (FIGS. 33b and e), in the absence (FIGS. 33a-c) or presence (FIGS. 33d-f) of 10 ng/ml Adopep1 peptide (for 24 hours). Cells were trypsinized and immediately re-suspended in PBS with 5% FCS and 0.1% Na-azide. Samples containing 100,000 cells were tested for apoptosis using the Annexin-FITC (X axis) and propidium iodide (Y axis) kit (Bender Medsystems, Vienna, Austria), according to manufacturer's instructions. Results were analyzed by FACScan (Beckton Dickinson).
EC were incubated for 24 hours with 5% FCS in EC growth media in Petri dishes plates followed by 24 hours incubation under hypoxia conditions with ADOPep1 (10 ng/ml), anti GRP78 antibody (Santa Cruz Biotechnology, Calif., USA) (1 microgram/ml) or recombinant VEGF (10 ng/ml). The Annexin V FITC/PI detects the phosphatidylserin on the apoptotic cells using flow cytometry. Human Annexin V-FITC kit (Bender Medsystems, Vienna, Austria) was used for the measurement of EC apoptosis percentage following manufacturer's instructions. Samples were analyzed using a fluorescence activated cell sorter (FACScan Beckton Dickinson, Calif., USA).

T1 sequence (P11021 19-654): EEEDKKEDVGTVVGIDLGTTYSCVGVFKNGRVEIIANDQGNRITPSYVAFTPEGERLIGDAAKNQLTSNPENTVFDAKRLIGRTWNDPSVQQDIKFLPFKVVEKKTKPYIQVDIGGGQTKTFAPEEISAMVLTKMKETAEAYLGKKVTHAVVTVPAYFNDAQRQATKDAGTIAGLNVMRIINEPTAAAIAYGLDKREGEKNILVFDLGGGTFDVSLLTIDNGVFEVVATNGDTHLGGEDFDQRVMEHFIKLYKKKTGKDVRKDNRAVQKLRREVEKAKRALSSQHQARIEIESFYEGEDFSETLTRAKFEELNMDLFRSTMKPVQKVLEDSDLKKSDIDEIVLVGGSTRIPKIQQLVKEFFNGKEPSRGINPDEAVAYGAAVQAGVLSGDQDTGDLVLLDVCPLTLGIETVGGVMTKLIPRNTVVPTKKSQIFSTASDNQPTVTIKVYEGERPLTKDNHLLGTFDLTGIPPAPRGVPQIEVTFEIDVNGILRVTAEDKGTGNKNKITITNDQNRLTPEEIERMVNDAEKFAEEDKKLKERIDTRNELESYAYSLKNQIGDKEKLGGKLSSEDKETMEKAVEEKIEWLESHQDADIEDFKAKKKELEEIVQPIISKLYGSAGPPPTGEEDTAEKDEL

On to “HWRRAHLLPRLP [ADOPep1, ADAM15 derived peptide, amino acids 286-297 of the metalloprotease domain]”, for which the “inhibition of anti GRP78 binding to endothelial cells (in words)” value in assay [1] is “inhibit the binding of GRP78 to endothelial cells”. Moreover, the “inhibition of anti GRP78 binding to endothelial cells” value in assay [1] was “approximately 80%”. Moreover, the entries for the “proliferation of endothelial cells” value in assay [2] and in assay [2] (listed as ADOpep1) were “capable of inducing proliferation of EC” and “induced proliferation of endothelial cells”, respectively. In addition, the “effect on hypoxia-induced apoptosis of endothelial cells” value with endothelial cells was “prevented apoptosis to levels which are similar to those seen under normoxic conditions; also recorded: capable of inhibiting the hypoxia induced apoptosis; also recorded: remarkable decrease in the stained cells; also recorded: significant inhibition of hypoxia induced apoptosis; also recorded: a significant fraction of hypoxia-induced apoptosis was inhibited”. Further, the “more efficient in decreasing apoptosis as compared to the anti-GRP78 antibody” value with endothelial cells (FIG. 17, hypoxia) turned out to be 29%. Further, the “percent apoptosis of endothelial cells (Annexin-V/PI)” value in the assay with endothelial cells (FIG. 17, hypoxia, ADOPep1 10 ng/ml, anti-GRP78 antibody 100 ng/ml) amounted to 25%. Further, the “inhibition of hypoxia induced apoptosis” value with endothelial cells (FIG. 34, 24 hours hypoxia, 10 ng/ml) is “approximately 40%”. The “percent apoptosis (PI/Annexin V)” value in the assay on endothelial cells (10 ng/ml) is 28.6%.

Take “HWRRP [Motif A, 5 amino acid motif peptide]”: in assay [1], the “inhibition of anti GRP78 binding to endothelial cells (in words)” value is reported as “inhibit the binding of GRP78 to endothelial cells” and the “inhibition of anti GRP78 binding to endothelial cells” value is given as approximately 60%. The “effect on hypoxia-induced apoptosis of endothelial cells” value in the assay on endothelial cells is reported as “capable of inhibiting the hypoxia induced apoptosis; also recorded: significant inhibition of hypoxia induced apoptosis”. Also, in the assay with endothelial cells (10 ng/ml), the “percent apoptosis (PI/Annexin V)” value worked out at 35.8%.
